According to PubChem BioAssay AID248 (DTP/NCI, 2004):
Values joined by “and” are separate entries in the source; they are usually repeats but may differ in a detail not shown here. Identical values can stand only once. Inconclusive results and toxic doses are left out. Cut-off read from the data, not from the text of the source: active = T/C of 150% or more; inactive = T/C below 125%.

Test system: L1210 leukemia ip in BDF1 mice, survival T/C
Assay: NCI In Vivo Anticancer Drug Screen. Data for tumor model L1210 Leukemia (intraperitoneal) in B6D2F1 (BDF1) mice
Conditions: endpoint: mean survival time, higher = longer survival
How it was run: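 In this screen, tumor-bearing mice given compound are compared to those given vehicle, and their survival values are reported as a treated-to-control quotient.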

[1] = dose: 100.0 mg/kg/injection, schedule: Q01DX009 (ip), vehicle: saline with Tween-80
[2] = dose: 100.0 mg/kg/injection, schedule: Q04DX003 (ip), vehicle: saline with Tween-80
[3] = dose: 200.0 mg/kg/injection, schedule: Q04DX003 (ip), vehicle: saline with Tween-80
[4] = dose: 400.0 mg/kg/injection, schedule: Q04DX003 (ip), vehicle: saline with Tween-80
[5] = dose: 100.0 mg/kg/injection, schedule: Q04DX003 (ip), vehicle: saline
[6] = dose: 200.0 mg/kg/injection, schedule: Q04DX003 (ip), vehicle: saline
[7] = dose: 400.0 mg/kg/injection, schedule: Q04DX003 (ip), vehicle: saline
[8] = dose: 100.0 mg/kg/injection, schedule: Q01DX001 (ip), vehicle: saline
[9] = dose: 100.0 mg/kg/injection, schedule: Q01DX009 (ip), vehicle: saline
[10] = dose: 200.0 mg/kg/injection, schedule: Q01DX001 (ip), vehicle: saline
[11] = dose: 400.0 mg/kg/injection, schedule: Q01DX001 (ip), vehicle: saline
[12] = dose: 100.0 mg/kg/injection, schedule: Q01DX009 (ip), vehicle: Klucel (hydroxypropylcellulose) (HPC)
[13] = dose: 100.0 mg/kg/injection, schedule: Q04DX003 (ip), vehicle: Klucel (hydroxypropylcellulose) (HPC)
[14] = dose: 200.0 mg/kg/injection, schedule: Q01DX009 (ip), vehicle: Klucel (hydroxypropylcellulose) (HPC)
[15] = dose: 200.0 mg/kg/injection, schedule: Q04DX003 (ip), vehicle: Klucel (hydroxypropylcellulose) (HPC)
[16] = dose: 400.0 mg/kg/injection, schedule: Q04DX003 (ip), vehicle: Klucel (hydroxypropylcellulose) (HPC)
[17] = dose: 200.0 mg/kg/injection, schedule: Q01DX009 (ip), vehicle: saline with Tween-80

Measured: T/C

CCOC(=O)n1ccn2cncc2c1=O
inactive: [1] 86 % of control | [2] 95 % of control | [3] 101 % of control | [4] 95 % of control

CCCC[N+](C)(C)CCCOC(=O)C1C2CC3OC(=O)C1C3C2 (centres undefined)
inactive: dose: 12.5 mg/kg/injection, schedule: Q01DX003 (ip), vehicle: saline with Tween-80 97 % of control | dose: 25.0 mg/kg/injection, schedule: Q01DX003 (ip), vehicle: saline with Tween-80 100 % of control | dose: 50.0 mg/kg/injection, schedule: Q01DX003 (ip), vehicle: saline with Tween-80 97 % of control | dose: 50.0 mg/kg/injection, schedule: Q04DX003 (ip), vehicle: saline with Tween-80 101 % of control | [2] 103 % of control

CC(C)=NOCCCCON=C(C)C
inactive: dose: 100.0 mg/kg/injection, schedule: Q01DX001 (ip), vehicle: saline with Tween-80 101 % of control | dose: 100.0 mg/kg/injection, schedule: Q04DX002 (ip), vehicle: saline with Tween-80 95 % of control and 103 % of control | dose: 200.0 mg/kg/injection, schedule: Q01DX001 (ip), vehicle: saline with Tween-80 100 % of control | dose: 200.0 mg/kg/injection, schedule: Q04DX002 (ip), vehicle: saline with Tween-80 109 % of control and 88 % of control | dose: 400.0 mg/kg/injection, schedule: Q01DX001 (ip), vehicle: saline with Tween-80 92 % of control | dose: 400.0 mg/kg/injection, schedule: Q04DX002 (ip), vehicle: saline with Tween-80 103 % of control and 88 % of control

CC(=O)NC(NNC(NC(C)=O)(c1ccccc1)c1ccccc1)(c1ccccc1)c1ccccc1
inactive: [5] 105 % of control | [6] 102 % of control | [7] 92 % of control

N#C/C=C/C#N
inactive: [2] 92 % of control

COc1ccc(OC)c(/C=C/C(=O)NCC(O)CO)c1 (centres undefined)
inactive: [2] 105 % of control | [3] 105 % of control | [4] 103 % of control

CC(=O)OCC(=O)[C@@]1(O)CC[C@H]2[C@@H]3C[C@H](F)C4=CC(=O)CC[C@]4(C)[C@H]3C(=O)C[C@@]21C
inactive: dose: 0.78 mg/kg/injection, schedule: Q01DX005 (ip), vehicle: saline 102 % of control | dose: 1.56 mg/kg/injection, schedule: Q01DX005 (ip), vehicle: saline 102 % of control | dose: 3.12 mg/kg/injection, schedule: Q01DX005 (ip), vehicle: saline 104 % of control | dose: 100.0 mg/kg/injection, schedule: Q01DX001 (sc), vehicle: steriod suspending solution 96 % of control | dose: 200.0 mg/kg/injection, schedule: Q01DX001 (sc), vehicle: steriod suspending solution 104 % of control | dose: 400.0 mg/kg/injection, schedule: Q01DX001 (sc), vehicle: steriod suspending solution 102 % of control

c1ccc2c[n+](CCCCCCCCCC[n+]3ccc4ccccc4c3)ccc2c1
inactive: dose: 1.0 mg/kg/injection, schedule: Q01DX009 (ip), vehicle: saline 106 % of control | dose: 2.0 mg/kg/injection, schedule: Q01DX009 (ip), vehicle: saline 97 % of control | dose: 4.0 mg/kg/injection, schedule: Q01DX009 (ip), vehicle: saline 92 % of control | dose: 8.0 mg/kg/injection, schedule: Q04DX003 (ip), vehicle: saline 97 % of control | dose: 16.0 mg/kg/injection, schedule: Q04DX003 (ip), vehicle: saline 92 % of control | dose: 32.0 mg/kg/injection, schedule: Q04DX003 (ip), vehicle: saline 89 % of control

CCCCCCCOC(C[N+](=O)[O-])C(Cl)(Cl)Cl (centres undefined)
inactive: dose: 25.0 mg/kg/injection, schedule: Q01DX009 (ip), vehicle: acetone 95 % of control | dose: 50.0 mg/kg/injection, schedule: Q01DX009 (ip), vehicle: acetone 93 % of control | dose: 100.0 mg/kg/injection, schedule: Q04DX003 (ip), vehicle: acetone 99 % of control

C[S+](C)CCCN
inactive: [8] 105 % of control | [9] 94 % of control | [5] 103 % of control | [10] 110 % of control | dose: 200.0 mg/kg/injection, schedule: Q01DX009 (ip), vehicle: saline 109 % of control | [6] 106 % of control | [11] 105 % of control | dose: 400.0 mg/kg/injection, schedule: Q01DX009 (ip), vehicle: saline 106 % of control | [7] 98 % of control

COc1ccc(C(C(N)=O)N2CCCCC2)cc1 (centres undefined)
inactive: [12] 95 % of control | [13] 107 % of control | [14] 88 % of control | [15] 94 % of control | dose: 400.0 mg/kg/injection, schedule: Q01DX009 (ip), vehicle: Klucel (hydroxypropylcellulose) (HPC) 91 % of control | [16] 102 % of control

c1ccc(N2N=NC3C4CCC(C4)C32)cc1 (centres undefined)
inactive: [1] 108 % of control | [17] 98 % of control | dose: 400.0 mg/kg/injection, schedule: Q01DX009 (ip), vehicle: saline with Tween-80 104 % of control

O=C(N/N=C/c1ccccc1F)c1ccc(Cl)cc1
inactive: dose: 50.0 mg/kg/injection, schedule: Q01DX009 (ip), vehicle: saline with Tween-80 96 % of control | [1] 96 % of control | [17] 96 % of control

Nc1ccc2ncccc2c1 (tested in a mixture with another compound)
inactive: dose: 100.0 mg/kg/injection, schedule: Q04DX003 (ip), vehicle: gum acacia 100 % of control | dose: 200.0 mg/kg/injection, schedule: Q04DX003 (ip), vehicle: gum acacia 91 % of control | dose: 400.0 mg/kg/injection, schedule: Q04DX003 (ip), vehicle: gum acacia 100 % of control

CSc1n[nH]c(/N=N/N(C)C)c1C(N)=O
inactive: [13] 99 % of control | [15] 103 % of control | [16] 111 % of control

CC(C)=CCC(O)(c1ccccc1)C(C)CN(C)C (centres undefined)
inactive: dose: 12.5 mg/kg/injection, schedule: Q01DX009 (ip), vehicle: saline 94 % of control | dose: 12.5 mg/kg/injection, schedule: Q04DX003 (ip), vehicle: saline 94 % of control | dose: 25.0 mg/kg/injection, schedule: Q01DX009 (ip), vehicle: saline 106 % of control and 103 % of control | dose: 25.0 mg/kg/injection, schedule: Q04DX003 (ip), vehicle: saline 94 % of control | dose: 50.0 mg/kg/injection, schedule: Q01DX009 (ip), vehicle: Klucel (hydroxypropylcellulose) (HPC) 100 % of control | dose: 50.0 mg/kg/injection, schedule: Q01DX009 (ip), vehicle: saline 101 % of control and 96 % of control | dose: 50.0 mg/kg/injection, schedule: Q04DX003 (ip), vehicle: saline 118 % of control | [12] 97 % of control | [9] 98 % of control | [14] 95 % of control

COC(=O)CC(=O)c1ccc2ccccc2n1
inactive: dose: 50.0 mg/kg/injection, schedule: Q01DX001 (ip), vehicle: carboxymethylcellulose (CMC) 108 % of control | dose: 100.0 mg/kg/injection, schedule: Q01DX001 (ip), vehicle: carboxymethylcellulose (CMC) 100 % of control | dose: 200.0 mg/kg/injection, schedule: Q01DX001 (ip), vehicle: carboxymethylcellulose (CMC) 97 % of control | dose: 400.0 mg/kg/injection, schedule: Q01DX001 (ip), vehicle: carboxymethylcellulose (CMC) 105 % of control

CNC(CCC(=O)O)C(=O)O (centres undefined)
inactive: [8] 89 % of control | [10] 96 % of control | [11] 91 % of control

Cc1ccccc1N(C)C(=S)c1ccc(Cl)cc1
inactive: dose: 100.0 mg/kg/injection, schedule: Q01DX001 (ip), vehicle: Klucel (hydroxypropylcellulose) (HPC) 105 % of control | [13] 92 % of control | dose: 200.0 mg/kg/injection, schedule: Q01DX001 (ip), vehicle: Klucel (hydroxypropylcellulose) (HPC) 102 % of control | [15] 94 % of control | dose: 400.0 mg/kg/injection, schedule: Q01DX001 (ip), vehicle: Klucel (hydroxypropylcellulose) (HPC) 110 % of control | [16] 96 % of control

CCCOP(=O)(OCCC)C(OC(=O)C(C)(C)C)=C(C)C
inactive: [2] 92 % of control | [3] 96 % of control
